{"source": "patent US7285703B2", "about": "“Plant like starches and the method of making them in hosts” (BASF Plant Science GmbH, priority 1998, dated 2007)", "key": {"[1]": {"molecular_target": "maize starch synthase SSIIa-1, putative full length SSIIa (669 amino acids), N-terminus AEAEAGGK (SEQ ID NO:68) (Zea mays, UniProt A0A804PX87)", "sequence (A0A804PX87 entry or part of it)": "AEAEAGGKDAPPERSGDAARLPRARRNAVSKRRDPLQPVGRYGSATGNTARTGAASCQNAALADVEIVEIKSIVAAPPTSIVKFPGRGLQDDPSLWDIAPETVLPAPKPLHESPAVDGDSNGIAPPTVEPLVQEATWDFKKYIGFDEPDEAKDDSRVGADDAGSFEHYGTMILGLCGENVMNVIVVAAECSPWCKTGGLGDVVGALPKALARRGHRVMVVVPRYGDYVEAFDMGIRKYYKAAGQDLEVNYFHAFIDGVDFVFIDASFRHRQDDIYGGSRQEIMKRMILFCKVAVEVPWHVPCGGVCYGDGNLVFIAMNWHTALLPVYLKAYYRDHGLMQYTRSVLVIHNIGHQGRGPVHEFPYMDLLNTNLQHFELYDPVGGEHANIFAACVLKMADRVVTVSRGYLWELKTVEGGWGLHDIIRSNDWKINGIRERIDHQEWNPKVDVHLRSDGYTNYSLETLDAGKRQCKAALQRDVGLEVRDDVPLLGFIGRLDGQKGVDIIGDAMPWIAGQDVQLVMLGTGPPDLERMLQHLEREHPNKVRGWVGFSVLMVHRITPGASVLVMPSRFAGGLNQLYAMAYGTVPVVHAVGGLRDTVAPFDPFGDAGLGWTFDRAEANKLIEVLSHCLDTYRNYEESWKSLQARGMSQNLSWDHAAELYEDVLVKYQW", "assay": "ADPGlc kinetics of starch synthase SSIIa-1", "assay_type": "biochemical", "settings": "for Vmax (ADPGlc kinetics): amylopectin as primer, 27° C.", "source_text": "FIG. 59. SSIIa-1 and SSIIa-2 construct diagram. Two forms of SSIIa were constructed in the pET expression system. pExs3c encodes SSIIa-1, the putative full length maize SSIIa which has the N-terminal sequence AEAEAGGK (SEQ ID NO:68). […] A depiction of the waxy gene, encoding GBSS which has the N-terminal sequence ASAGMNVV (SEQ ID NO:67), is also included for comparison. The amino acid motif KTGGL (SEQ ID NO:10), the putative binding site for ADPGlc, is indicated by the triangles. The KTGGL (SEQ ID NO:10) motif is located 18 amino acids from the N-terminus in GBSS, while the motif is 194 amino acids from the N-terminus in maize SSIIa.\n5 mL of supernatant were used to assay STS and SBE activities as previously described (Preiss) with minor modification. […] […] The unincorporated [^14C]-ADPGlc was separated with Dowex anion exchange column (200-400 mesh, Sigma Chemical Co.). One unit of activity is defined as 1 nmol Glc incorporated into the a-glucan per min at 25° C. SBE activity was determined by phosphorylase stimulation assay. One unit of activity is defined as 1 mmol Glc incorporated into the a-glucan per min at. 30° C.\nFor the recombinant SS purification, the cell pellet was resuspended in sonication buffer (50 mM Tris-acetate, pH 7.5, 10 mM EDTA, and 5 mMDTT; 7 ml buffer per gram of cell mass), and cells were lysed using a Fisher 550 Sonic Dismembrator with 5×1 min. bursts with 30 sec. intervals. The homogenate was centrifuged at 9600 g for 30 minutes. SSI in the supernatant was then precipitated by slowly adding neutralized saturated ammonium sulfate to 40% saturation. After stirring on ice for an additional 50 minutes, proteins were collected by centrifugation at 12500 g for 45 minutes. The protein pellet was then redissolved in buffer A (50 mM Tris, pH 5.5, 1 mM EDTA, and 5 mM DTT) containing 0.1 M KCl and dialyzed against the same buffer, with one change of buffer. After dialysis, the sample was centrifuged at 13000 g for 20 minutes to remove insoluble materials. […]"}, "[2]": {"molecular_target": "T1, maize starch synthase SSI-2 (STSI-2), N-terminally truncated SSI, amino acids 8-52 of SSI-1 deleted, N-terminus CVAELSR/DLG (SEQ ID NO:65) (Zea mays, UniProt O49064, DEL47-91)", "T1 sequence (O49064 with tags, fused parts or gaps DEL47-91)": "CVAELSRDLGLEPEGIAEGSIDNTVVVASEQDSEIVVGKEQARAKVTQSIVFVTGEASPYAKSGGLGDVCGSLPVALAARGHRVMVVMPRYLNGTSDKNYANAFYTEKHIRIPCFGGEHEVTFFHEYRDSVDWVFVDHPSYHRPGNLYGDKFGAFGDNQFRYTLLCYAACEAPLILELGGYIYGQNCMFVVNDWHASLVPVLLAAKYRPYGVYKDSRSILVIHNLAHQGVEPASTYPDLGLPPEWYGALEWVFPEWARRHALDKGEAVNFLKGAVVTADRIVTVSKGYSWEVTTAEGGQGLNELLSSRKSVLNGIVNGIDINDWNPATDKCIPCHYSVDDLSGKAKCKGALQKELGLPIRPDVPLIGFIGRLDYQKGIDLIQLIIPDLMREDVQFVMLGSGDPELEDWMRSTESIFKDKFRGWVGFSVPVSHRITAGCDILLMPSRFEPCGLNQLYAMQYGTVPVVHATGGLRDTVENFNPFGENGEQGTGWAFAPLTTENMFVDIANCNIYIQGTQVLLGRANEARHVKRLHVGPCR", "assay": "ADPGlc kinetics of starch synthase SSI-2", "settings": "5 mg/ml amylopectin as primer, 37° C.", "method": "(SEQ ID NO:64). pExs8 encodes a truncated SSI, SSI-2, with amino acids # 8-52 deleted from the N-terminus of SSI-1 and which has the N-terminal sequence CVAELSR/DLG (SEQ ID NO:65). pExs1d encodes the most truncated form of SSI, SSI-3, with the first 93 amino acids deleted from SSI-1 and which has the N-terminal sequence [sequence]\n5 mL of supernatant were used to assay STS and SBE activities as previously described (Preiss) with minor modification. The reaction mixture for STS contained 100 mM Bicine buffer, 10 mg/mL glycogen, 0.5 mg/mL BSA, 0.5 M sodium citrate, 25 mM potassium acetate, 10 mM GSH, 3 mM [^14C]-ADPGlc (500 dpm/nmol) and enzyme in a final volume of 0.1 mL. The reaction was carried out at 25° C. for 15 min and terminated by boiling for 2 min. The unincorporated [^14C]-ADPGlc was separated with Dowex anion exchange column (200-400 mesh, Sigma Chemical Co.). One unit of activity is defined as 1 nmol Glc incorporated into the a-glucan per min at 25° C.\nFor the recombinant SS purification, the cell pellet was resuspended in sonication buffer (50 mM Tris-acetate, pH 7.5, 10 mM EDTA, and 5 mMDTT; 7 ml buffer per gram of cell mass), and cells were lysed using a Fisher 550 Sonic Dismembrator with 5×1 min. bursts with 30 sec. intervals. The homogenate was centrifuged at 9600 g for 30 minutes. SSI in the supernatant was then precipitated by slowly adding neutralized saturated ammonium sulfate to 40% saturation. After stirring on ice for an additional 50 minutes, proteins were collected by centrifugation at 12500 g for 45 minutes. The protein pellet was then redissolved in buffer A (50 mM Tris, pH 5.5, 1 mM EDTA, and 5 mM DTT) containing 0.1 M KCl and dialyzed against the same buffer, with one change of buffer. After dialysis, the sample was centrifuged at 13000 g for 20 minutes to remove insoluble materials. The resulting supernatant was loaded onto amylase affinity column pre-equilibrated with dialysis buffer, and the flow through was collected. […]"}}, "data": [{"smiles": "Nc1ncnc2c1ncn2[C@@H]1O[C@H](COP(=O)(O)OP(=O)(O)O[C@H]2O[C@H](CO)[C@@H](O)[C@H](O)[C@H]2O)[C@@H](O)[C@H]1O", "note": "[ADPGlc, adenosine diphosphate glucose]", "values": [{"measurement": "Vmax (ADPGlc kinetics)", "setting": "[1]; +citrate", "value": "23.0 ± 2.5", "unit": "μmol/min/mg protein"}, {"measurement": "Vmax (ADPGlc kinetics)", "setting": "[1]; −citrate", "value": "12.1 ± 0.8", "unit": "μmol/min/mg protein"}, {"measurement": "increase of Km of ADPGlc upon raising the assay temperature", "setting": "[1]; from 27° C. to 37° C.", "value": 2, "unit": "fold"}, {"measurement": "Vm (ADPGlc kinetics)", "setting": "[2]; +citrate", "value": "32.6 ± 0.8", "unit": "μmol/min/mg protein"}, {"measurement": "Vm (ADPGlc kinetics)", "setting": "[2]; −citrate", "value": "11.7 ± 0.7", "unit": "μmol/min/mg protein"}]}]}
